In US20100311729A1, “Substituted imidazopyridazines and pyrrolopyrimidines as lipid kinase inhibitors” (priority 2007, published 2010):

Assays:
Assay type in all cases: biochemical
PI3K beta = biological target: T1, PI3K beta (Homo sapiens, UniProt P42338); experiment: PI3 kinase assay (Kinase-Glo luminescence), PI3K beta; conditions: Enzymatic Data; read-out: PI3K beta IC50 [umol]
T1 construct: for the full-length p110-b subunit are generated and fused by overlapping PCR; His tag (C); made in house; host or cells: baculovirus; Tn5 (Trichoplusia ni) or TiniPro insect cells
Summary of the method: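 PI3Kβ (25 nM, BV-949) with 10 μg/mL phosphatidylinositol in Tris pH 7.5/MgCl2/NaCl/CHAPS/DTT buffer; reaction started with 1 μM ATP, 60 min at room temperature. ATP depletion read by Kinase-Glo luminescence; 8-point dilutions, IC50 by four-parameter logistic fit.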

PI3K gamma = biological target: T2, PI3K gamma (Homo sapiens, UniProt P48736); experiment: PI3 kinase assay (Kinase-Glo luminescence), PI3K gamma; conditions: Enzymatic Data; read-out: PI3K gamma IC50 [umol]
T2 construct: PI3Kγ BV-950 p110g(D144aa)-C-Term His Tag; His tag (C); made in house; host or cells: construct from the Roger Williams lab (MRC LMB) in pVL1393; baculovirus; Tn5 (Trichoplusia ni) or TiniPro insect cells
Summary of the method: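 Percent inhibition at eight concentrations (typically 10 to 0.003 […]) fitted to a four-parameter logistic model to give IC50. Reaction initiated with ATP; final ATP 1 μM and phosphatidylinositol 10 μg/mL; ATP consumption read by Kinase-Glo luminescence.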

PI3K delta = biological target: T3, PI3K delta (Homo sapiens, UniProt O00329); experiment: PI3 kinase assay (Kinase-Glo luminescence), PI3K delta; conditions: Enzymatic Data; read-out: PI3K delta IC50 [umol]
T3 construct: for the full-length p110-d subunit are generated and fused by overlapping PCR; His tag (C); made in house; host or cells: baculovirus; Tn5 (Trichoplusia ni) or TiniPro insect cells
Summary of the method: (§1)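 Recombinant PI3K constructs (alfa 10 nM, delta 10 nM, gamma 150 nM) with 1 μM ATP and 10 μg/mL phosphatidylinositol in Tris pH 7.5, MgCl2, NaCl, CHAPS, DTT; 60 min (alfa, delta) or 120 min (gamma) at room temperature. ATP depletion read by Kinase-Glo luminescence; IC50 from 4-parameter logistic fit over 8 concentrations.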

PI3K alfa = biological target: T4, PI3K alfa (Homo sapiens, UniProt P42336); experiment: PI3 kinase assay (Kinase-Glo luminescence), PI3K alfa; conditions: Enzymatic Data; read-out: PI3K alfa IC50 [umol]
T4 construct: for the p110-a subunit (with a deletion of the first 20 amino acids); His tag (C); made in house; host or cells: baculovirus; Tn5 (Trichoplusia ni) or TiniPro insect cells
Summary of the method: as §1

T2 sequence (P48736 144-1102 limits assumed): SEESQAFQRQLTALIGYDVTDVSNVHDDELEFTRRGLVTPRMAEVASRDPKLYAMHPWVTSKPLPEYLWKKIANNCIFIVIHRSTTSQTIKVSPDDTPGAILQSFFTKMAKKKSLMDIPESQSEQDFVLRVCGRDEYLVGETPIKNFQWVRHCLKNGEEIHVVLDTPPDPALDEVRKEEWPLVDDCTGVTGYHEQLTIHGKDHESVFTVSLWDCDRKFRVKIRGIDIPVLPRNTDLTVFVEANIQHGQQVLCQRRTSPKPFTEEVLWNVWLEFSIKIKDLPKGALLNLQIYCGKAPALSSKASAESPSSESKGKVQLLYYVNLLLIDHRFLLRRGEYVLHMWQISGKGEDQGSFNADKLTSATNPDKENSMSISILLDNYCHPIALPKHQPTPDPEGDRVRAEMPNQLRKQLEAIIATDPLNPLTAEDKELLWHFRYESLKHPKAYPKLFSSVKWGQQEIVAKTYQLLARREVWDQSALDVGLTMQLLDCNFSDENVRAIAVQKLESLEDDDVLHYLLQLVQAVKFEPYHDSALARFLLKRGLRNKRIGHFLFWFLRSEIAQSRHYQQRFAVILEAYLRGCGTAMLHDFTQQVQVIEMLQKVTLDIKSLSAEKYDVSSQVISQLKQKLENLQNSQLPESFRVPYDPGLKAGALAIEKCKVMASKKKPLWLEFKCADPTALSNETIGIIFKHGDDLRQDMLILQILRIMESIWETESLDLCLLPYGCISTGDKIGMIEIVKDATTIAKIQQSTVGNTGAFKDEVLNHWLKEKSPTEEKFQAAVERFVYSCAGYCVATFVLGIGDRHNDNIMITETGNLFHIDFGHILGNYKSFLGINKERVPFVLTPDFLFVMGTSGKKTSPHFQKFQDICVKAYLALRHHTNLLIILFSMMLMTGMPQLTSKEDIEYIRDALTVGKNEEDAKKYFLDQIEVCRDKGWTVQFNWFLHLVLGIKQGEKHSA
T3 sequence (O00329 with tags, fused parts or gaps limits assumed): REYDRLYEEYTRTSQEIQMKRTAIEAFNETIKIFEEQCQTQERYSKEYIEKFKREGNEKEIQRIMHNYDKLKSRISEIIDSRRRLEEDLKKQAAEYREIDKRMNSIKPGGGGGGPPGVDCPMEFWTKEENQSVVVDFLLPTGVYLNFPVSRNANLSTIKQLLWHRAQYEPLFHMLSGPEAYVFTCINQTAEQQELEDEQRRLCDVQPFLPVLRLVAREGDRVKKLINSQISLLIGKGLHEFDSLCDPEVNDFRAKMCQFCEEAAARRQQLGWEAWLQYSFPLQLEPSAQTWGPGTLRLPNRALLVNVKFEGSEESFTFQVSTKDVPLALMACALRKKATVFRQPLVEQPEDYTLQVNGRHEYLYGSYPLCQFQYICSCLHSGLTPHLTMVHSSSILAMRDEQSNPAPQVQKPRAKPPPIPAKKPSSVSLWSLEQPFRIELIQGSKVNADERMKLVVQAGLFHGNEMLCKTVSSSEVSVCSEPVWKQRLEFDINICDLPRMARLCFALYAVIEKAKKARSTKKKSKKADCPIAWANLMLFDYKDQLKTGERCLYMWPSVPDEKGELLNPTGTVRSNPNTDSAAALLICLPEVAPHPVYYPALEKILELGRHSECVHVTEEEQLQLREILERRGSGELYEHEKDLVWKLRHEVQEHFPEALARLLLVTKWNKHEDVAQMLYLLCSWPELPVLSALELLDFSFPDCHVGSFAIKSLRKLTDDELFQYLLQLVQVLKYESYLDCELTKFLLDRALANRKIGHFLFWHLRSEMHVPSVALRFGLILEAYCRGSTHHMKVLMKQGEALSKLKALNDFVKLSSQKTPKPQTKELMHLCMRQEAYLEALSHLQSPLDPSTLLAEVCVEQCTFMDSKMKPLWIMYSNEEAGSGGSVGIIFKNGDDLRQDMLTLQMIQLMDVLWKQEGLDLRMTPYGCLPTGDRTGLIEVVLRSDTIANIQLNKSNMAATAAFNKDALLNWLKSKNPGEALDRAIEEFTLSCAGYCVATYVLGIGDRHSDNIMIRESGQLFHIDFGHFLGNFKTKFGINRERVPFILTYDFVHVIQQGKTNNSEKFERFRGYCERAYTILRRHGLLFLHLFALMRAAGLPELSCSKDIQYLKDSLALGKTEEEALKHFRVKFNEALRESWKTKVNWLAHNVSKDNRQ
T1 sequence (P42338 with tags, fused parts or gaps limits assumed): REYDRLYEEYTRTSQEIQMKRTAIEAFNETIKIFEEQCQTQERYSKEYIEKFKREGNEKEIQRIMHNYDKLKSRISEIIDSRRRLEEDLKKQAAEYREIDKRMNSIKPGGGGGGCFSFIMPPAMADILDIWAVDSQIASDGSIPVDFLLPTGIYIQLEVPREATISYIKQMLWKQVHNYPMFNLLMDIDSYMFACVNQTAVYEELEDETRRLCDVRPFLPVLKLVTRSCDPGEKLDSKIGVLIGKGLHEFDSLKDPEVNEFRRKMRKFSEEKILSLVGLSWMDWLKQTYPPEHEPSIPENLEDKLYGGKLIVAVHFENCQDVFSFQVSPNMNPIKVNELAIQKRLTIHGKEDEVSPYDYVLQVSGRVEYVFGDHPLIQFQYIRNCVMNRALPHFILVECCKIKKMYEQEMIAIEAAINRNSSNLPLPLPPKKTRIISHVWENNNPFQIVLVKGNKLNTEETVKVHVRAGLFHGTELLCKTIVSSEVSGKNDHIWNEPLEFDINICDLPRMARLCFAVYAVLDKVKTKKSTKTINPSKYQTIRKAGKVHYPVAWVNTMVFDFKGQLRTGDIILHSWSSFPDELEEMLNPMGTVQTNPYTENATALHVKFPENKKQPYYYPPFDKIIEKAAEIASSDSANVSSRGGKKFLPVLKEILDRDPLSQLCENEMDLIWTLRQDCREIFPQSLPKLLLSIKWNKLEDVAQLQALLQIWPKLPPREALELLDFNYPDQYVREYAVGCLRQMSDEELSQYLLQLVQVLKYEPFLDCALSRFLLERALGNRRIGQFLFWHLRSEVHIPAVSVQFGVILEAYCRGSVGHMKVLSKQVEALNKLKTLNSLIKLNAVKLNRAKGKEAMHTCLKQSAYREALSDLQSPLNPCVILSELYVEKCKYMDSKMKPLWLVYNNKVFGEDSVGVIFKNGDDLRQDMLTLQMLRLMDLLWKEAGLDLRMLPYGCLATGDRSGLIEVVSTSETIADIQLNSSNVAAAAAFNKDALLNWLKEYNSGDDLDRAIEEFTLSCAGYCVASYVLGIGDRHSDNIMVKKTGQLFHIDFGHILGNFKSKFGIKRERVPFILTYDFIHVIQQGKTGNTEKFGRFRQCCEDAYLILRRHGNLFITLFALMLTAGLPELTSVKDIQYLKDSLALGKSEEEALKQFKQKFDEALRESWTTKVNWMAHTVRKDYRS
T4 sequence (P42336 with tags, fused parts or gaps limits assumed): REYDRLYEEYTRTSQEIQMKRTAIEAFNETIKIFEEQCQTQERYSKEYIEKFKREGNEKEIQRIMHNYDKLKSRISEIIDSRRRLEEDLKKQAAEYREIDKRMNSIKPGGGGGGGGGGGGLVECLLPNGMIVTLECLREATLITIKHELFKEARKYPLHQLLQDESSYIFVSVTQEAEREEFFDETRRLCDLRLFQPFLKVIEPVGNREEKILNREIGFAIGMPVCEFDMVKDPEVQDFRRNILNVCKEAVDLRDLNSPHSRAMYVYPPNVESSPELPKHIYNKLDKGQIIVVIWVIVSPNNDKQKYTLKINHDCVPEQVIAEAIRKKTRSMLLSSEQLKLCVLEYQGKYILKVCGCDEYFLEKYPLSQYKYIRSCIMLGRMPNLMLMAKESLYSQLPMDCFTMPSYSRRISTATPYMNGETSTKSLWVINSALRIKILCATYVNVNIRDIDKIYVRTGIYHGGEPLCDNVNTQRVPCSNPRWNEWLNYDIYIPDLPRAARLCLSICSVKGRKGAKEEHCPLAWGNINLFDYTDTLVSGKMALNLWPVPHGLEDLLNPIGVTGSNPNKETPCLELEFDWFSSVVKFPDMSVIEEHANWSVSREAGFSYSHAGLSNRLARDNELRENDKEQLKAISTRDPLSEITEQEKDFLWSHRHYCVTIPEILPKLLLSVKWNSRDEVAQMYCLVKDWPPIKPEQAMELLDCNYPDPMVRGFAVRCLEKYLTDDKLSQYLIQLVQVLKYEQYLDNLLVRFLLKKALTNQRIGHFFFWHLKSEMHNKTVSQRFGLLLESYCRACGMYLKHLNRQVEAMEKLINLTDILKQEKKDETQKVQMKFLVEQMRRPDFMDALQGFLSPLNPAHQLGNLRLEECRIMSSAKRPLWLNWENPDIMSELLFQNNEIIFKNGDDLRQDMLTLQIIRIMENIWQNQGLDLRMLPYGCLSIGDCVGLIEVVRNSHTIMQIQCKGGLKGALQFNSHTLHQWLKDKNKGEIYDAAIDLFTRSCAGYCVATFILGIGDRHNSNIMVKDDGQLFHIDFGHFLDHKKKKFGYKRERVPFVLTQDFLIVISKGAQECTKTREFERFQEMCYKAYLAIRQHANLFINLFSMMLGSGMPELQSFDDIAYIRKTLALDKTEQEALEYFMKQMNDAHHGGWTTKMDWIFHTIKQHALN

| IC50 (PI3K beta) | IC50 (PI3K gamma) | IC50 (PI3K delta) | IC50 (PI3K alfa) | SMILES |
| --- | --- | --- | --- | --- |
| 217 nM | 446 nM | 10 nM | 9 nM | COc1cc(-c2cnc3ccc(-c4cnc(N)c(C(F)(F)F)c4)nn23)ccc1C(=O)N1CCN(Cc2cccnc2)CC1 [Example 117, {4-[6-(6-Amino-5-trifluoro-methyl-pyridin-3-yl)-imidazo [1,2-b]pyridazin-3-yl]-2-methoxy-phenyl}-(4-pyridin-3-ylmethyl-piperazin-1-yl)-methanone] |
| 178 nM | 405 nM | 6 nM | 8 nM | COc1cc(-c2cnc3ccc(-c4cnc(N)c(C(F)(F)F)c4)nn23)ccc1C(=O)N1CCN(CCN2CCOCC2)CC1 [Example 118, {4-[6-(6-Amino-5-trifluoro-methyl-pyridin-3-yl)-imidazo [1,2-b]pyridazin-3-yl]-2-methoxy-phenyl}-[4-(2-morpholin-4-yl-ethyl)-piperazin-1-yl]-methanone] |
| 137 nM | 406 nM | 13 nM | 9 nM | COc1cc(-c2cnc3ccc(-c4cnc(N)c(C(F)(F)F)c4)nn23)ccc1C(=O)N1CCN(CC(=O)N2CCOCC2)CC1 [Example 119, 2-(4-{4-[6-(6-Amino-5-trifluoro-methyl-pyridin-3-yl)-imidazo [1,2-b]pyridazin-3-yl]-2-methoxy-benzoyl}-piperazin-1-yl)-1-morpholin-4-yl-ethanone] |
| 389 nM | 757 nM | 25 nM | 16 nM | COc1cc(-c2cnc3ccc(-c4cnc(N)c(C(F)(F)F)c4)nn23)ccc1C(=O)N1CCN(c2ccccn2)CC1 [Example 120, {4-[6-(6-Amino-5-trifluoro-methyl-pyridin-3-yl)-imidazo [1,2-b]pyridazin-3-yl]-2-methoxy-phenyl}-(4-pyridin-2-yl-piperazin-1-yl)-methanone] |
| 19 nM | 3310 nM | 26 nM | 24 nM | Nc1ncc(-c2ccc3ncc(-c4ccc(S(N)(=O)=O)cc4)n3n2)cc1C(F)(F)F [Example 121, 4-[6-(6-Amino-5-trifluoro-methyl-pyridin-3-yl)-imidazo [1,2-b]pyridazin-3-yl]-benzene-sulfon-amide] |
| 986 nM | 1400 nM | 199 nM | 43 nM | Nc1ncc(-c2cnc3ccc(-c4ccc(C(=O)NCCN5CCOCC5)cc4)nn23)cc1C(F)(F)F [Example 122, 4-[3-(6-Amino-5-trifluoro-methyl-pyridin-3-yl)-imidazo [1,2-b]pyridazin-6-yl]-N-(2-morpholin-4-yl-ethyl)-benzamide] |
| 157 nM | 529 nM | 29 nM | 18 nM | Nc1ncc(-c2ccc3ncc(-c4ccc(S(=O)(=O)NCCN5CCOCC5)cc4)n3n2)cc1C(F)(F)F [Example 124, 4-[6-(6-Amino-5-trifluoro-methyl-pyridin-3-yl)-imidazo [1,2-b]pyridazin-3-yl]-N-(2-morpholin-4-yl-ethyl)-benzene-sulfonamide] |
| 182 nM | 490 nM | 55 nM | 26 nM | COc1cc(-c2cnc3ccc(-c4cnc(N)c(C(F)(F)F)c4)nn23)ccc1C(=O)NCCCN1CCOCC1 [Example 125, 4-[6-(6-Amino-5-trifluoro-methyl-pyridin-3-yl)-imidazo [1,2-b]pyridazin-3-yl]-2-methoxy-N-(3-morpholin-4-yl-propyl)-benzamide] |
| 139 nM | 1030 nM | 22 nM | 66 nM | Nc1ncc(-c2ccc3ncc(-c4cnc5c(ccn5CCN5CCOCC5)c4)n3n2)cc1C(F)(F)F [Example 126, 5-{3-[1-(2-Morpholin-4-yl-ethyl)-1H-pyrrolo [2,3-b]pyridin-5-yl]-imidazo [1,2-b]pyridazin-6-yl}-3-trifluoro-methyl-pyridin-2-ylamine] |
| 416 nM | 1050 nM | 59 nM | 19 nM | Nc1ncc(-c2ccc3ncc(-c4ccc(C(=O)N5CCN(Cc6cccnc6)CC5)cc4)n3n2)cc1C(F)(F)F [Example 127, {4-[6-(6-Amino-5-trifluoro-methyl-pyridin-3-yl)-imidazo [1,2-b]pyridazin-3-yl]-phenyl}-(4-pyridin-3-ylmethyl-piperazin-1-yl)-methanone] |
| 518 nM | 938 nM | 38 nM | 12 nM | Nc1ncc(-c2ccc3ncc(-c4ccc(C(=O)N5CCN(CCN6CCOCC6)CC5)cc4)n3n2)cc1C(F)(F)F [Example 128, {4-[6-(6-Amino-5-trifluoro-methyl-pyridin-3-yl)-imidazo [1,2-b]pyridazin-3-yl]-phenyl}-[4-(2-morpholin-4-yl-ethyl)-piperazin-1-yl]-methanone] |
| 4140 nM | 2020 nM | 676 nM | 223 nM | Nc1ccc(-c2cnc3ccc(-c4ccc(OCCCNC(=O)C5CC5)cc4)nn23)cn1 [Example 129, Cyclo-propane-carboxylic acid (3-{4-[3-(6-amino-pyridin-3-yl)-imidazo [1,2-b]pyridazin-6-yl]-phenoxy}-propyl)-amide] |
| > 9100 nM | 1300 nM | 576 nM | 347 nM | O=C(NCCCOc1ccc(-c2ccc3ncc(-c4cncc(C(F)(F)F)c4)n3n2)cc1)C1CC1 [Example 130, Cyclo-propane-carboxylic acid (3-{4-[3-(5-trifluoro-methyl-pyridin-3-yl)-imidazo [1,2-b]pyridazin-6-yl]-phenoxy}-propyl)-amide] |
| 112 nM | 703 nM | 15 nM | 26 nM | Nc1ncc(-c2ccc3ncc(-c4ccc5c(cnn5CCN5CCOCC5)c4)n3n2)cc1C(F)(F)F [Example 131, 5-{3-[1-(2-Morpholin-4-yl-ethyl)-1H-indazol-5-yl]-imidazo [1,2-b]pyridazin-6-yl}-3-trifluoro-methyl-pyridin-2-ylamine] |
| 1260 nM | 2020 nM | 52 nM | 26 nM | CN(C)CCN1CCN(C(=O)c2ccc(-c3cnc4ccc(-c5cnc(N)c(C(F)(F)F)c5)nn34)cc2)CC1 [Example 132, {4-[6-(6-Amino-5-trifluoro-methyl-pyridin-3-yl)-imidazo [1,2-b]pyridazin-3-yl]-phenyl}-[4-(2-dimethyl-amino-ethyl)-piperazin-1-yl]-methanone] |
| 302 nM | 1280 nM | 33 nM | 38 nM | COc1cc(-c2cnc3ccc(-c4cnc(N)c(C(F)(F)F)c4)nn23)ccc1C(=O)N1CCN(CCc2ccccn2)CC1 [Example 133, {4-[6-(6-Amino-5-trifluoro-methyl-pyridin-3-yl)-imidazo [1,2-b]pyridazin-3-yl]-2-methoxy-phenyl)-[4-(2-pyridin-2-yl-ethyl)-piperazin-1-yl]-methanone] |
| 443 nM | > 9100 nM | 79 nM | 71 nM | Nc1ncc(-c2ccc3ncc(-c4ccc(S(=O)(=O)NCCCN5CCOCC5)cc4)n3n2)cc1C(F)(F)F [Example 134, 4-[6-(6-Amino-5-trifluoro-methyl-pyridin-3-yl)-imidazo [1,2-b]pyridazin-3-yl]-N-(3-morpholin-4-yl-propyl)-benzene-sulfonamide] |
| 587 nM | 2010 nM | 59 nM | 46 nM | Nc1ncc(-c2ccc3ncc(-c4ccc(C(=O)N5CCN(CCc6ccccn6)CC5)cc4)n3n2)cc1C(F)(F)F [Example 135] |
| 1200 nM | 1530 nM | 52 nM | 36 nM | Nc1ncc(-c2ccc3ncc(-c4ccc(C(=O)N5CCN(Cc6ccncc6)CC5)cc4)n3n2)cc1C(F)(F)F [Example 136, {4-[6-(6-Amino-5-trifluoro-methyl-pyridin-3-yl)-imidazo [1,2-b]pyridazin-3-yl]-phenyl}-(4-pyridin-4-ylmethyl-piperazin-1-yl)-methanone] |
| > 9100 nM | > 9100 nM | 280 nM | 138 nM | O=C(NCCCOc1ccc(-c2ccc3ncc(-c4cnc5[nH]ccc5c4)n3n2)cc1)C1CC1 [Example 137, Cyclo-propane-carboxylic acid (3-{4-[3-(1H-pyrrolo[2,3-b]pyridin-5-yl)-imidazo [1,2-b]pyridazin-6-yl]-phenoxy}-propyl)-amide] |
| 135 nM | 712 nM | 27 nM | 37 nM | Nc1ncc(-c2ccc3ncc(-c4ccc5c(cnn5CCCN5CCOCC5)c4)n3n2)cc1C(F)(F)F [Example 140, 5-{3-[1-(3-Morpholin-4-yl-propyl)-1H-indazol-5-yl]-imidazo [1,2-b]pyridazin-6-yl}-3-trifluoro-methyl-pyridin-2-ylamine] |
